The text below walks through data of US9790215B2 (FLATLEY DISCOVERY LAB, LLC, priority 2013, dated 2017).

Some results are limits rather than exact numbers.

The target in the assay is T1, human ΔF508-CFTR (Homo sapiens, UniProt P13569, DEL508-508).
T1 construct: expressed in transfected cells
Kind of assay: CFTR-YFP High Throughput Assay (YFP halide flux in FRT cells). It is filed as cell-based. Conditions: FRT cells expressing human ΔF508-CFTR and YFP; for EC50: forskolin stimulated. Put shortly:
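FRT cells stably co-expressing human ΔF508-CFTR and halide-sensitive YFP-H148Q/I152L were treated with compound […] for 24–26 h at 37 °C (corrector mode), washed, then stimulated with 20 μM forskolin plus 30 μM potentiator P3 for 60–120 min at room temperature. Iodide-induced YFP quench (ex 500/em 540 nm) rates came from least-squares fitting.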

T1 sequence (P13569 with tags, fused parts or gaps DEL508-508): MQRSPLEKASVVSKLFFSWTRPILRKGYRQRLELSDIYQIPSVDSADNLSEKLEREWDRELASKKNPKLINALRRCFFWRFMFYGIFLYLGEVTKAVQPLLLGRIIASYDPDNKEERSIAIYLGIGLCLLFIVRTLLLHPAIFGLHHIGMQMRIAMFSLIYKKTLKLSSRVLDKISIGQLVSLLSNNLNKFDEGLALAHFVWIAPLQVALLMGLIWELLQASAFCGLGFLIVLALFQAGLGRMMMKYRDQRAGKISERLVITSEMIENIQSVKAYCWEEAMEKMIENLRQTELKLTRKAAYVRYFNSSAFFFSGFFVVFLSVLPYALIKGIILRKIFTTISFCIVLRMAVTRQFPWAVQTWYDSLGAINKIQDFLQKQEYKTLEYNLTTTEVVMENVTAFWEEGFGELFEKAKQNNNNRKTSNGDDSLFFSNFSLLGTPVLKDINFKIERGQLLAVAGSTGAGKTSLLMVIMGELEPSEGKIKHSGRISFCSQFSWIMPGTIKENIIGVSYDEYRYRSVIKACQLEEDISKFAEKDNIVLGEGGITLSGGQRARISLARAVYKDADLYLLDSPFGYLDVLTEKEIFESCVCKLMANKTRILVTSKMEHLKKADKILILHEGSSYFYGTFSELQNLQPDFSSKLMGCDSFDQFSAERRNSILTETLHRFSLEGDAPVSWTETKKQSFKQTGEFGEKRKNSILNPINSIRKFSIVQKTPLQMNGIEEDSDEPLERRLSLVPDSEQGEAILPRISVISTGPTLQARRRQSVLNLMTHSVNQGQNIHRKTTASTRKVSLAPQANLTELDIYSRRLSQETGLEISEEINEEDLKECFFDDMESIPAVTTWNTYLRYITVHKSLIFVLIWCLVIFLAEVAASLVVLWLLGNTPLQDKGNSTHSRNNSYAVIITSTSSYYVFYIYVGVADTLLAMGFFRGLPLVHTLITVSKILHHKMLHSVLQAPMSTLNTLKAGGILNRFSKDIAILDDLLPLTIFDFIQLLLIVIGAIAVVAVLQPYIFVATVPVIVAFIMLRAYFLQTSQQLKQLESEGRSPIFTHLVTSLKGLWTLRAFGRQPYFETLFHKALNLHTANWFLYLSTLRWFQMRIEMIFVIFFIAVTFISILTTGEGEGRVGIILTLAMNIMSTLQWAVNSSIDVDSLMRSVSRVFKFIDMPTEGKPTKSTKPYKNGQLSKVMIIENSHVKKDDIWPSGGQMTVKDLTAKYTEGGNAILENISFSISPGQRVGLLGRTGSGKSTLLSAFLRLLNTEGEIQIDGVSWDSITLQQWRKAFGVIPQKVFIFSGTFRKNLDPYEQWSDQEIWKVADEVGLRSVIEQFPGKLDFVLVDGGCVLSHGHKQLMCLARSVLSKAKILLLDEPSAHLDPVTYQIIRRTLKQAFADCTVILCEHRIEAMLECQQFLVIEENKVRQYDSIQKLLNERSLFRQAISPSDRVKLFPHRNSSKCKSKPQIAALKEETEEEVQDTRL

One may read the EC50 as the midpoint of the concentration-response curve. As for `CCN(C(=O)Cn1nc(Cc2cccnc2)c2c3ccccc3n(C)c2c1=O)c1ccc2c(c1)OC(F)(F)O2` [Example 157, N-(2,2-difluorobenzo[d][1,3]dioxol-5-yl)-N-ethyl-2-(5-methyl-4-oxo-1-(pyridin-3-ylmethyl)-4,5-dihydro-3H-pyridazino[4,5-b]indol-3-yl)acetamide], the EC50 was greater than 20 µM. Consider “N-(2,2-difluorobenzo[d][1,3]dioxol-5-yl)-N-ethyl-2-(1-oxo-4-(4-sulfamoyl-phenyl)phthalazin-2(1H)-yl)acetamide [Example 17]”, for which the “% Efficacy (Emax normalized to the positive control)” value was “++ (a range of 80%-30%)” and the EC50 was less than 10 µM.

On to “N-(2,2-difluorobenzo[d][1,3]dioxol-5-yl)-N-ethyl-2-(1-oxo-4-(pyridin-3-yl)phthalazin-2(1H)-yl)acetamide [Example 23]”, for which the “% Efficacy (Emax normalized to the positive control)” value was “++ (a range of 80%-30%)” and the EC50 was 10 to 20 µM. For the compound “N-(2,2-difluorobenzo[d][1,3]dioxol-5-yl)-N-ethyl-2-(4-(3-fluorophenyl)-1-oxophthalazin-2(1H)-yl)acetamide [Example 22]”, the “% Efficacy (Emax normalized to the positive control)” value is “++ (a range of 80%-30%)” and the EC50 is less than 10 µM. On to “N-ethyl-N-(4-ethylphenyl)-2-(1-oxo-4-(4-sulfamoylphenyl)phthalazin-2(1H)-yl)acetamide [Example 12]”, for which the “% Efficacy (Emax normalized to the positive control)” value was “++ (a range of 80%-30%)” and the EC50 is greater than 20 µM. Consider “N-ethyl-N-(4-ethylphenyl)-2-(4-(3-hydroxyphenyl)-1-oxophthalazin-2(1H)-yl)acetamide [Example 8]”, for which the “% Efficacy (Emax normalized to the positive control)” value is “++ (a range of 80%-30%)” and the EC50 was less than 10 µM.

Turning to “N-ethyl-N-(4-ethylphenyl)-2-(4-(4-(methylsulfonyl)phenyl)-1-oxophthalazin-2(1H)-yl)acetamide [Example 15]”, the “% Efficacy (Emax normalized to the positive control)” value was “+ (a range of 30%-10%)” and the EC50 was greater than 20 µM. With “methyl 4-(3-(2-(ethyl(4-ethylphenyl)amino)-2-oxoethyl)-4-oxo-3,4-dihydrophthalazin-1-yl)benzoate [Example 14]”, the “% Efficacy (Emax normalized to the positive control)” value is given as “++ (a range of 80%-30%)” and the EC50 is greater than 20 µM.
